The values that follow come from US20110306636A1, “OXAZOLE PYRIDINE DERIVATIVES USEFUL AS S1P1 RECEPTOR AGONISTS” (Merck Serono SA, priority 2009, published 2011).

The target in one assay is S1P1 (Homo sapiens, UniProt P21453). As to the kind of experiment: Receptor binding assay, [33P]sphingosine 1-phosphate competition, S1P1. The protocol: (§1) Membranes Preparation: Membranes were prepared from CHO cells expressing S1P1 or S1P3 for use in ligand and 35S-GTPγS binding studies. Cells were suspended in 50 mM TRIS, pH 7.4, 2 mM EDTA, 250 mM Sucrose (buffer A) and 1× Complete protease inhibitor cocktail (Roche), and disrupted at 4° C. by N2 decompression using a cell disruption bomb (Parr Instrument). Following centrifugation at 1000 RPM for 10 min at 4° C., the supernatant was diluted (2×) in buffer A and centrifuged again at 19000 RPM for 75 min at 4° C. The pellet was then suspended in 10 mM HEPES, pH 7.4, 1 mM EDTA, 250 mM Sucrose (Buffer B), and 1× Complete EDTA-free protease inhibitor cocktail and homogenized using a potter. Membranes were flash frozen in liquid N2 and stored at −80° C.
(§2) Receptor binding assay: [33P]sphingosine 1-phosphate (3000 Ci/mmol; American Radiolabeled Chemicals, Inc.) was added to test compounds in 20% DMSO by competition. Membranes and WGA SPA beads (GE Healthcare) were added to give a final volume of 100 μl in 96-well plates or 50 μl in 384-well plates with assay concentrations of 30 pM or 15 pM [33P]sphingosine 1-phosphate (respectively for S1P1 or S1P3), 50 mM HEPES, pH 7.5, 5 mM MgCl2, 100 mM NaCl, 0.4% fatty acid-free BSA, 1-5 μg/well of proteins in 96-well plates vs 0.6-1 μg/well of proteins in 384-well plates and 100 μg/well of WGA SPA beads in 96-well plates vs 75 μg/well of WGA SPA beads in 384-well plates. Binding was performed for 60 min at RT on a shaker and bound radioactivity was measured on a PerkinElmer 1450 MicroBeta counter. Triplicate samples were averaged and normalized as purcentage of inhibition relative to total binding (only DMSO in well) and non specific binding (1000-fold excess of unlabeled S1P). Binding data were analyzed using the GraphPad Prism program or Genedata software.

The target of the next assay is S1P3 (Homo sapiens, UniProt Q99500). As to the kind of experiment: Receptor binding assay, [33P]sphingosine 1-phosphate competition, S1P3. The protocol: as §1, §2
Assay [1] concerns the target T1, human S1P1 Receptor fused to the green fluorescent protein (EGFP) (Homo sapiens, UniProt P21453).
T1 construct: host or cells: U2OS (human bone osteosarcoma epithelial cells), CMV promoter, geneticin selection
As to the kind of experiment: Internalization of S1P1 in S1P1-U2OS cells by cell imaging analysis. The format is cell-based. To be noted: 1 hour incubation, 384-well. As to the method:
Cellular Functional Assays: Internalization of Sphingosine-1-Phosphate Receptor 1 (S1P1) in a Human Cell Line (U2OS) in a 384-Well Format Using a Cell Imaging Analysis.
The S1P1 internalization assay was performed in 384 well plates (Corning® 384 black with clear bottom 3712) using S1P1-U2OS cells from BioImage (C039A), a human epithelial cell line (Human Bone Osteosarcoma Epithelial Cells). These cells expressed the human S1P1 Receptor fused to the green fluorescent protein (EGFP). A standard CMV promoter (cytomegalovirus promoter) controls the expression of S1P1-EGFP and continuous expression was maintained by addition of geneticin to the culture medium.
S1P1 Receptor desensitization induced the internalization of the membrane-localized S1P1-EGFP fusion protein to endosomes, which can be monitored by cell imaging analysis.
The cells are plated in low serum medium (Dulbecco's Modified Eagle Medium (DMEM) with Glutamax-1 and high glucose, 1% Penicillin/Streptomycin, 1% Fetal Calf Serum (FCS), 0.5 mg/ml Geneticin) overnight.
The next day, S1P1-U2OS cells are incubated in 20 μl serum free medium (DMEM with Glutamax-1 and high glucose, 0.1% of fatty-acid free Bovin Serum Albumin (BSA), 10 mM, N′-2-Hydroxyethylpiperazine-N′-2 ethanesulphonic acid (HEPES) 1M) for 2 hours at 37° C./5% CO2.
The cells are then treated with 4 μl compounds/agonists (6×/3% DMSO) for a total volume of 24 μl, and plates are incubated for 1 hour at 37° C./5% CO2.
S1P1-U2OS cells are fixed with 25 μl Paraformaldehyde 8% and stained with Hoechst 33345 dye (1:1000) for 20 minutes.
They were then washed 3 times with Phosphate Buffered Saline (PBS) and plates are sealed.
The internalization of the receptor S1P1-EGFP is measured on Cellomics by calculating the “spot count per object” (“object” corresponds to nuclear and “spot” corresponds to S1P1-EGFP receptor). Internalization data were observed thanks to vHCS View and analyzed using Genedata® software.

The mark [2] stands for this setting: 96 well-plate, read-out: S1P1 binding IC50 (M) (96 well-plate).
Setting [3] is: 384 well-plate, read-out: S1P1 binding IC50 (M) (384 well-plate).
[4] abbreviates: 96 well-plate, read-out: S1P3 binding IC50 (M) (96 well-plate).
The mark [5] stands for this setting: 384 well-plate, read-out: S1P3 binding IC50 (M) (384 well-plate).

Structures can show the parent of a compound that is named as a salt. Where two headings read alike, the source gives them in different places.

S1P3, sequence (Q99500 whole entry, species assumed, the tested form may be a part): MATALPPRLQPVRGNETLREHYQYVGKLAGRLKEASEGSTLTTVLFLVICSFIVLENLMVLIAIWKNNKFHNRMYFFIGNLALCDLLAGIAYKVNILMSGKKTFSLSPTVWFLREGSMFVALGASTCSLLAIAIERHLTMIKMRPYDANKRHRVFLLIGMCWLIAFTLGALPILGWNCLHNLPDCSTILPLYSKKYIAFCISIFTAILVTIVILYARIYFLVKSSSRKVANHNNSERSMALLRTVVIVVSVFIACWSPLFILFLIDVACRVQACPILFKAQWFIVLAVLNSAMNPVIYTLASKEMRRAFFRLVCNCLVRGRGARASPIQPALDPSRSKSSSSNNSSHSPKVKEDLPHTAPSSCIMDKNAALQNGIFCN
T1 sequence (P21453 with tags, fused parts or gaps): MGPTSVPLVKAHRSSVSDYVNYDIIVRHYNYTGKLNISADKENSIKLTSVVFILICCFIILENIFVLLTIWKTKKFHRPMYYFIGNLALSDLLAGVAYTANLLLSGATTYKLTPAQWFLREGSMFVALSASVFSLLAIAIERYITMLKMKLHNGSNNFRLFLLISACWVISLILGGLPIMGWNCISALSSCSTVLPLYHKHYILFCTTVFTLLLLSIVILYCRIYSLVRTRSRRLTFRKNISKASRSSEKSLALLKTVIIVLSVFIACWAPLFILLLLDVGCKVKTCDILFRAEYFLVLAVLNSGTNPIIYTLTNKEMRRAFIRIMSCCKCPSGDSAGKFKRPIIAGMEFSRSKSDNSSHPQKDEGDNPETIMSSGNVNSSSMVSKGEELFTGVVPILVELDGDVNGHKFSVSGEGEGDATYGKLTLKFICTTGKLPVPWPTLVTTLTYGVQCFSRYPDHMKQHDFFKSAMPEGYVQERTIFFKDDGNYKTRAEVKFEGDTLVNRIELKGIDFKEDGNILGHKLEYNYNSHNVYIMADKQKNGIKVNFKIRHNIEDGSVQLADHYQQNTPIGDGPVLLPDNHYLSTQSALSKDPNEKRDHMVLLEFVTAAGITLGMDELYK
S1P1, sequence (P21453 whole entry, species assumed): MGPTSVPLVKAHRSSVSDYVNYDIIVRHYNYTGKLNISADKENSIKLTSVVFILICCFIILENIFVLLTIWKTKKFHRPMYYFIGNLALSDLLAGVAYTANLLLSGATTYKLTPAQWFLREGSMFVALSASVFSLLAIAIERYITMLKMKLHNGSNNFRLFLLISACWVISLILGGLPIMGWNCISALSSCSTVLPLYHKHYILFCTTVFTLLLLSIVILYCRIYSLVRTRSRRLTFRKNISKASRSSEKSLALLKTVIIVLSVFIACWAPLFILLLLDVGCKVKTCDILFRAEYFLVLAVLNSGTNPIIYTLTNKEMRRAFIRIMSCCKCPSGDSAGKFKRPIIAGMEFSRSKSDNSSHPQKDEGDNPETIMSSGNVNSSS

For the molecule `COCc1cc(-c2nc(-c3ccc(N)nc3)no2)ccc1-c1ccccc1F` [Example 52, 5-{5-[2′-fluoro-2-(methoxymethyl)biphenyl-4-yl]-1,2,4-oxadiazol-3-yl}pyridin-2-amine], the IC50 at S1P1 (setting [2]) came out at 1.65e-09 M; on S1P1 (setting [3]) it was 1.82e-08 M; on S1P3 (setting [4]), 3.62e-06 M; on S1P3 (setting [5]), 3.25e-06 M. The molecule also had an EC50 in assay [1] of 0.0231 µM.
The like results for `COCc1cc(-c2nc(-c3cnc(Cl)c(F)c3)no2)ccc1-c1ccccc1C` [Example 60, 2-chloro-3-fluoro-5-{5-[2-(methoxymethyl)-2′-methylbiphenyl-4-yl]-1,2,4-oxadiazol-3-yl}pyridine] were, in that order, 2.83e-09 M, 4.34e-09 M, 6.53e-06 M, 3e-06 M and 0.0195 µM.
`COCc1cc(-c2nc(-c3ccc(NCCCO)nc3)no2)ccc1-c1ccccc1C` [Example 41, 3-[(5-{5-[2-(methoxymethyl)-2′-methylbiphenyl-4-yl]-1,2,4-oxadiazol-3-yl}pyridin-2-yl)amino]propan-1-ol]: the half-maximal inhibitory concentration (IC50) on S1P1 (setting [2]) amounted to 6.72e-09 M; on S1P1 (setting [3]) it was 1.72e-08 M. In assay [1], this molecule displayed an EC50 of 0.0842 µM.
`COCc1cc(-c2nc(-c3ccc(CN(C)CC(=O)O)nc3)no2)ccc1-c1ccccc1C` [Example 78, 2-(((5-(5-(2-(methoxymethyl)-2′-methylbiphenyl-4-yl)-1,2,4-oxadiazol-3-yl)pyridin-2-yl)methyl)(methyl)amino)acetic acid]: the IC50 was determined as 3.01e-09 M on S1P1 (setting [2]), 3.5e-09 M on S1P1 (setting [3]), 3.04e-06 M at S1P3 (setting [4]) and 2.48e-06 M at S1P3 (setting [5]). The molecule also yielded an EC50 in assay [1] of 0.00948 µM.
For `Cc1cc(-c2nc(-c3ccc(CN(C)CC(=O)O)nc3)no2)ccc1-c1ccccc1C(F)(F)F` [Example 81, 2-(methyl((5-(5-(2-methyl-2′-(trifluoromethyl)biphenyl-4-yl)-1,2,4-oxadiazol-3-yl)pyridin-2-yl)methyl)amino)acetic acid], the IC50 on S1P1 (setting [3]) is 2.5e-08 M. The molecule also had an EC50 in assay [1] of 0.17 µM.
As for `COCc1cc(-c2nc(-c3cnc(NCCC(=O)O)c(Cl)c3)no2)ccc1-c1ccccc1Cl` [Example 50, N-(3-chloro-5-{5-[2′-chloro-2-(methoxymethyl)biphenyl-4-yl]-1,2,4-oxadiazol-3-yl}pyridin-2-yl)-beta-alanine, hydrochloride salt], the IC50 at S1P1 (setting [2]) stood at 1.58e-09 M; on S1P1 (setting [3]) it was 1.98e-08 M; at S1P3 (setting [4]), 5.82e-06 M; on S1P3 (setting [5]), 9.45e-06 M. For the same molecule, the midpoint of the response in assay [1], the EC50, lay at 0.0173 µM.
Turning to `COCc1cc(-c2nc(-c3ccc(NCCO)nc3)no2)ccc1-c1ccccc1Cl` [Example 49, 2-[(5-{5-[2′-chloro-2-(methoxymethyl)biphenyl-4-yl]-1,2,4-oxadiazol-3-yl}pyridin-2-yl)amino]ethanol], the IC50 was determined as 3.71e-09 M at S1P1 (setting [2]) and 2.4e-08 M at S1P1 (setting [3]). In assay [1], this molecule showed an EC50 of 0.0615 µM.
`COCc1cc(-c2nc(-c3cnc(N)c(Cl)c3)no2)ccc1N1CCCCC1C` (centres unmarked) [Example 42, 3-chloro-5-{5-[3-(methoxymethyl)-4-(2-methylpiperidin-1-yl)phenyl]-1,2,4-oxadiazol-3-yl}pyridin-2-amine]: the IC50 on S1P1 (setting [2]) was found to be 2.89e-09 M. The molecule further showed an EC50 in assay [1] of 0.0479 µM.
On to `COCCCNc1ncc(-c2noc(-c3ccc(-c4ccccc4C)c(COC)c3)n2)cc1Cl` [Example 82, 3-chloro-5-(5-(2-(methoxymethyl)-2′-methylbiphenyl-4-yl)-1,2,4-oxadiazol-3-yl)-N-(3-methoxypropyl)pyridin-2-amine], for which the IC50 at S1P1 (setting [3]) was found to be 4.56e-08 M. Further, it took 0.128 µM to reach a half-maximal effect in assay [1] (EC50).
For `Cc1ccccc1-c1ccc(-c2nc(-c3cnc(NCCC(=O)O)c(Cl)c3)no2)cc1C` [Example 73, N-{3-chloro-5-[5-(2,2′-dimethylbiphenyl-4-yl)-1,2,4-oxadiazol-3-yl]pyridin-2-yl}-beta-alanine, hydrochloride salt] the same measures were 1.47e-08 M and 0.173 µM.
The like results for `Cc1cc(-c2nc(-c3cnc(NCCC(=O)O)c(Cl)c3)no2)ccc1-c1ccccc1C(F)(F)F` [Example 70, N-(3-chloro-5-{5-[2-methyl-2′-(trifluoromethyl)biphenyl-4-yl]-1,2,4-oxadiazol-3-yl}pyridin-2-yl)-beta-alanine, hydrochloride salt] were, in that order, 1.72e-08 M and 0.0934 µM.
For `Cc1cc(-c2nc(-c3ccnc(CN(C)CC(=O)O)c3)no2)ccc1-c1ccccc1C(F)(F)F` [Example 80, 2-(methyl((4-(5-(2-methyl-2′-(trifluoromethyl)biphenyl-4-yl)-1,2,4-oxadiazol-3-yl)pyridin-2-yl)methyl)amino)acetic acid] the same measures were 2.76e-08 M and 0.0936 µM.
Turning to `COCc1cc(-c2nc(-c3ccc(Cl)nc3)no2)ccc1-c1ccccc1C` [Example 40, 2-chloro-5-{5-[2-(methoxymethyl)-2′-methylbiphenyl-4-yl]-1,2,4-oxadiazol-3-yl}pyridine], the IC50 at S1P1 (setting [2]) worked out at 5.49e-08 M. In assay [1], this molecule yielded an EC50 of 0.307 µM.
For `Cc1ccccc1-c1ccc(-c2nc(-c3cnc(NCCC(=O)O)c(Cl)c3)no2)cc1C(F)(F)F` [Example 61, N-(3-chloro-5-{5-[2′-methyl-2-(trifluoromethyl)biphenyl-4-yl]-1,2,4-oxadiazol-3-yl}pyridin-2-yl)-beta-alanine, hydrochloride salt], the half-inhibitory concentration (IC50) stood at 5.28e-09 M on S1P1 (setting [2]) and 9.48e-09 M at S1P1 (setting [3]). Further, in assay [1], the EC50 was 0.198 µM.
Take `COCc1cc(-c2nc(-c3ccc(NCC(C)O)nc3)no2)ccc1-c1ccccc1C` (centres unmarked) [Example 44, 1-[(5-{5-[2-(methoxymethyl)-2′-methylbiphenyl-4-yl]-1,2,4-oxadiazol-3-yl}pyridin-2-yl)amino]propan-2-ol]: the IC50 on S1P1 (setting [2]) was determined as 4.22e-09 M; on S1P1 (setting [3]) it was 3.03e-08 M. The response in assay [1] was half-maximal at 0.056 µM (EC50).
Consider `COCc1cc(-c2nc(-c3cnc(NCCCO)c(Cl)c3)no2)ccc1-c1ccccc1C` [Example 83, 3-(3-chloro-5-(5-(2-(methoxymethyl)-2′-methylbiphenyl-4-yl)-1,2,4-oxadiazol-3-yl)pyridin-2-ylamino)propan-1-ol], for which, on S1P1 (setting [2]), the IC50 stood at 2.9e-09 M. The molecule further came in with an EC50 in assay [1] of 0.0467 µM.
The like results for `COCc1cc(-c2nc(-c3cnc(N[C@H]4CCC[C@H]4C(=O)O)c(Cl)c3)no2)ccc1-c1ccccc1C` (relative stereo) [Example 84, cis-2-(3-chloro-5-(5-(2-(methoxymethyl)-2′-methylbiphenyl-4-yl)-1,2,4-oxadiazol-3-yl)pyridin-2-ylamino)cyclopentanecarboxylic acid] were, in that order, 1.35e-08 M and 0.427 µM.
With `COCc1cc(-c2nc(-c3cnc(NCCO)c(Cl)c3)no2)ccc1-c1ccccc1F` [Example 62, 2-[(3-chloro-5-{5-[2′-fluoro-2-(methoxymethyl)biphenyl-4-yl]-1,2,4-oxadiazol-3-yl}pyridin-2-yl)amino]ethanol], the figures for the IC50 on S1P1 (setting [2]) and on S1P1 (setting [3]) were 3.1e-09 M and 7.54e-09 M, respectively. Besides, the EC50 in assay [1] was 0.0908 µM.
